Like-named read-outs stand apart in the source and are kept apart here.
Key:
[1] = test system: A549 cell line; test: Proliferation of A549 (CellTiter Glo); assay type: cell-based; settings: read-out: IC50 μM (A549 Cell Line)
Protocol: The diterpenoid compounds were tested in A549, a non-small cell lung cancer cell line harboring a K-Ras activating mutation. Briefly, A549 cells at a density of 1,000 cells/well were seeded in 96-well plates and incubated at 37° C. for 24 hours. A series of different concentrations of compound stocks (500×) were prepared by 3-fold serial dilution in DMSO. These compounds were further diluted in culture media and then added to cells so that the final DMSO concentration was not exceeding 0.25%. After 96 hours of incubation, 50 μL of CellTiter Glo reagent (Promega) was added to each well and luminescence was measured after 10 minutes using EnVision (PerkinElmer). Luminescence from cells treated with DMSO alone was set as Max and % of inhibition was calculated as follows: Inhibition %=(Max-Sample value)/Max×100. Data was analyzed using XL-fit software (ID Business Solutions Ltd.) and IC50, relative IC50, and % of top inhibition was calculated. Some of the compounds in this disclosure were very potent in blocking proliferation of A549 lung cancer cells at low nM range. In addition, potency of inhibiting A549 proliferation correlated well with its binding affinity to PKCs for this series of compounds. In other words, higher affinity binders had stronger inhibitory effects on A549 proliferation. This further support the notion that activation, rather than inhibition, of certain PKC isoforms is required to block proliferation of cancer cells, some of which may harbor K-Ras mutations. This is in sharp contrast to previous literature and common belief that inhibition of PKC is necessary to block cancer cell growth (Kang, 2014, New Journal of Science, 2014:1-36). Data presented here is in agreement with recent findings that many loss-of-function but not gain-of-function mutations of PKC isoforms have been identified in many human cancers (Antal et al., 2015, Cell, 160:489-502).

[2] = test system: NFκB-driven transcription in HeLa-NFκB luciferase reporter cell line; test: NFκB luciferase reporter assay; settings: PKC inhibitor added at the same time as the PKC activator compounds
Protocol: A HeLa-NFκB luciferase reporter cell line (Wuxi Biology) was used to assess a group of PKC activator compounds for their ability to activate NFκB-driven transcription. […] One set of cells was assayed for luciferase activity (Promega, Cat #E1500) and the other set was assayed to determine the number of viable cells (for cell number normalization) using CellTiter-Glo (CTG) kit (Promega, Cat #G7570) according to manufacture's procedures. Normalized data (luciferase value/CTG value) were analyzed using GraphPad Prism5 to calculate EC50 for each compound (see Table 8).
To assess if activation of PKC is required for these compounds to activate NFκB, several PKC inhibitors including broad-spectrum and conventional PKC inhibitors were tested. In the assay described above, PKC inhibitors were added at the same time as the PKC activator compounds.

[3] = test system: human PBMC cells; test: Cytokine/chemokine gene expression in human PBMC (TaqMan); assay type: cell-based; settings: 4 h, 1 μM;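 as to Gene Relative Expression CCL2: 2^-ΔΔCt fold change vs DMSO control normalized to 18S and GAPDH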;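 as to Gene Relative Expression GM-CSF: 2^-ΔΔCt fold change vs DMSO control normalized to 18S and GAPDH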;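 as to Gene Relative Expression IFN-α: 2^-ΔΔCt fold change vs DMSO control normalized to 18S and GAPDH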;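 as to Gene Relative Expression IFNγ: 2^-ΔΔCt fold change vs DMSO control normalized to 18S and GAPDH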
Protocol: Each treatment condition was performed in duplicates.

With `CCCCCCCCCCCCCCCCCCC(CC(=O)O[C@@]12C[C@@H](C)[C@@]3(O)[C@@H](C=C(CO)C[C@]4(O)C(=O)C(C)=C[C@@H]34)[C@@H]1C2(C)C)C(=O)O` (stereo partly drawn) the IC50 ([1]; Homo sapiens, A549, 96 h) was 5 to 10 µM.

With `CC1=C[C@H]2[C@@]3(O)[C@H](C)C[C@]4(OC(=O)C(Cc5ccccc5)C(=O)O)[C@H]([C@@H]3C=C(CO)C[C@]2(O)C1=O)C4(C)C` (stereo partly drawn) the IC50 ([1]; Homo sapiens, A549, 96 h) was 1 to 2 µM.

Compound `CC1=C[C@H]2[C@@]3(O)[C@H](C)C[C@]4(OC(=O)[C@H](O)Cc5ccccc5)[C@H]([C@@H]3C=C(CO)C[C@]2(O)C1=O)C4(C)C` has an IC50 ([1]; Homo sapiens, A549, 96 h) of 2 to 5 µM.

In the case of `CC1=C[C@H]2[C@@]3(O)[C@H](C)C[C@]4(OC(=O)C[C@@H](N)c5ccccc5)[C@H]([C@@H]3C=C(CO)C[C@]2(O)C1=O)C4(C)C`, the IC50 ([1]; Homo sapiens, A549, 96 h) is reported as 2 to 5 µM.

Compound `CC1=C[C@H]2[C@@]3(O)[C@H](C)C[C@]4(OC(=O)[C@H](CC5CCCCC5)N(C)C)[C@H]([C@@H]3C=C(CO)C[C@]2(O)C1=O)C4(C)C` has an IC50 ([1]; Homo sapiens, A549, 96 h) of 0.6 to 1 µM.

For `CC1=C[C@H]2[C@@]3(O)[C@H](C)C[C@]4(OC(=O)[C@H](N)C56CC(F)(C5)C6)[C@H]([C@@H]3C=C(CO)C[C@]2(O)C1=O)C4(C)C`, the IC50 ([1]; 96 hours, CellTiter Glo) was 10 to 30 µM.

With `CC1=C[C@H]2[C@@]3(O)[C@H](C)C[C@]4(OC(=O)[C@@H](N)C56CC(F)(C5)C6)[C@H]([C@@H]3C=C(CO)C[C@]2(O)C1=O)C4(C)C` the IC50 ([1]; 96 hours, CellTiter Glo) was 10 to 30 µM.

`CC1=C[C@H]2[C@@]3(O)[C@H](C)C[C@]4(OC(=O)[C@@H](N)C56CC(C(F)(F)F)(C5)C6)[C@H]([C@@H]3C=C(CO)C[C@]2(O)C1=O)C4(C)C` showed an IC50 ([1]; Homo sapiens, A549, 96 hours, CellTiter Glo) of 0.06 to 0.1 µM.

For `CC1=C[C@H]2[C@@]3(O)[C@H](C)C[C@]4(O)[C@H]([C@@H]3C=C(CO)C[C@]2(O)C1=O)C4(C)C`, the IC50 ([1]; Homo sapiens, A549, 96 h) was greater than 30 µM.

`Cn1c2ccccc2c2c3c(c4c5ccccc5n(CCC#N)c4c21)CNC3=O` [Compound G66976, G66976, reference compound] was tested, and the “block of NFκB activation induced by PKC activator compounds” value (from here on “block of NFκB activation induced”) [2] was “unable to block”.

`COc1ccc2c(c1)c(C1=C(c3c[nH]c4ccccc34)C(=O)NC1=O)cn2CCCN(C)C` [Gö6983, reference compound] was tested, and the “block of NFκB activation induced” value [2] was “completely block”.

`CCOCc1nc2c(N)nc3ccccc3c2n1CC(C)(C)O` [Resiquimod, reference compound] was tested, and the “Gene Relative Expression CCL2” value [3] was 3.73, the “Gene Relative Expression GM-CSF” value [3] was 8.79 and the “Gene Relative Expression IFN-α” value [3] was 1.47. For the same compound, the “Gene Relative Expression IFNγ” value [3] was 1.28, the “Gene Relative Expression IL-1β” value [3] was 101.63 and the “Gene Relative Expression IL-2” value [3] was 1.21. The “Gene Relative Expression IL-6” value [3] was 487.14, the “Gene Relative Expression IL-8” value [3] was 9.87 and the “Gene Relative Expression IL-10” value [3] was 5.65. For the same compound, the “Gene Relative Expression IL-12p40” value [3] was 786.39, the “Gene Relative Expression IL-12p70” value [3] was 2.48 and the “Gene Relative Expression IL-13” value [3] was 3.52. The “Gene Relative Expression IL-18” value [3] was 1.33, the “Gene Relative Expression ISG15” value [3] was 14.75 and the “Gene Relative Expression MIP1a (CCL3)” value [3] was 47.71. The “Gene Relative Expression MX1” value [3] was 17.00, the “Gene Relative Expression OAS1” value [3] was 12.66 and the “Gene Relative Expression TNF-α” value [3] was 7.38.

`CN1CCN(c2nc(C3=C(c4c[nH]c5ccccc45)C(=O)NC3=O)c3ccccc3n2)CC1` [Sotrastaurin, reference compound] was tested, and the “block of NFκB activation induced” value [2] was “completely block”.
